The source of these data is US4772618A, “Benzamides” (priority 1985, dated 1988).

Where two headings read alike, the source gives them in different places.

The test system of one data set is stomach emptying. Kind of data set: Stomach emptying in the rat (stomach emptying index, glass beads), oral route. More on the design: key: index computed from beads emptied by treated (nx) vs control (nc) rats. The class given is in vivo. How it is done:
Stomach emptying in the rat, administering compounds via the oral (0.1-1 mg/Kg) and intraperitoneal routes (1-10 mg/Kg), (see Jacoby, H. I. and Brodie, D. A., Gastroenterol. 52, 676-684, 1967).
A stomach emptying index was calculated as follows:
40 Glass beads (diam.perspectiveto.1 mm) administered to each rat after dosing with the test compounds at 0.1, 0.3 and 1 mg/Kg p.o. Results calculated according to the formulae: [formula] where: nc =the number of beads empited by control animals.
nx =the number of beads emptied by treated animals.
SEI=Stomach emptying index [formula]

In data set [1] the target is T1, central and peripheral D2 (DA2)--dopamine receptors (Rattus norvegicus, UniProt P61169).
T1 construct: Apomorphine-induced stereotyped behaviour in the rat, administering compounds via the intraperitoneal route; from tissue; host or cells: whole living rat (in vivo, intraperitoneal dosing)
T1 sequence (P61169 whole entry): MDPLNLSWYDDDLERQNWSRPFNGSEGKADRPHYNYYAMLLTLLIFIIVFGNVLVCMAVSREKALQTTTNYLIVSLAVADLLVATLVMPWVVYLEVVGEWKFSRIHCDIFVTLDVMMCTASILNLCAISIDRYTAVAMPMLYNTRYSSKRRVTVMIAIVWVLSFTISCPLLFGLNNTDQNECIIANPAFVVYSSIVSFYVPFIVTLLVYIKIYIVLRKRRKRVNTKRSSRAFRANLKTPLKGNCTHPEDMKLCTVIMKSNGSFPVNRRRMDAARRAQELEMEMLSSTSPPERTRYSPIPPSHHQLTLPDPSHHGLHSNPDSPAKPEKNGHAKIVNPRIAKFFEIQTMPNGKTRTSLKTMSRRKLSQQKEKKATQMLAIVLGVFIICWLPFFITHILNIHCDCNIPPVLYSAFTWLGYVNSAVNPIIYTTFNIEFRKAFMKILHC
The data set can be described thus: Apomorphine-induced stereotyped behaviour in the rat, intraperitoneal route. The class given is in vivo. As to the method:
The pharmacological screening for undesirable effects upon central and peripheral D2 (DA2)--dopamine receptors was carried out using the following tests:
2. […]. (see Janssen, P. A. J., Niemegeers, C. J. E. and Jageneau, A. H. Arzneim. Forsch. 10, 1003-1005, 1960).

Data set [2] has as its target T2, central and peripheral D2 (DA2)--dopamine receptors (Canis lupus familiaris, UniProt Q9GJU1).
T2 construct: Apomorphine-induced emesis in the dog, administering compounds via the intravenous route; from tissue; host or cells: whole living dog (in vivo, intravenous dosing)
Kind of data set: Apomorphine-induced emesis in the dog, intravenous route. The class given is in vivo. How it is done:
The pharmacological screening for undesirable effects upon central and peripheral D2 (DA2)--dopamine receptors was carried out using the following tests: 3. […] (see […]., High, […]., Burke, J. C. and […]. Exp. Therap., 127, 55-65, 1959).

The test system of data set [3] is dopamine receptors in the striatum and hypophysis. The note with it: cited from earlier work.
The mark [4] stands for this setting: Table 1, 0.1, 0.3 and 1 mg/Kg p.o.
Where [5] appears, read: Table 2 (with aromatic compounds), 0.1, 0.3 and 1 mg/Kg p.o.
Where [6] appears, read: Table 2 (with aromatic compounds), ip.
The mark [7] stands for this setting: Table 2 (with aromatic compounds).

T2 sequence (Q9GJU1 whole entry): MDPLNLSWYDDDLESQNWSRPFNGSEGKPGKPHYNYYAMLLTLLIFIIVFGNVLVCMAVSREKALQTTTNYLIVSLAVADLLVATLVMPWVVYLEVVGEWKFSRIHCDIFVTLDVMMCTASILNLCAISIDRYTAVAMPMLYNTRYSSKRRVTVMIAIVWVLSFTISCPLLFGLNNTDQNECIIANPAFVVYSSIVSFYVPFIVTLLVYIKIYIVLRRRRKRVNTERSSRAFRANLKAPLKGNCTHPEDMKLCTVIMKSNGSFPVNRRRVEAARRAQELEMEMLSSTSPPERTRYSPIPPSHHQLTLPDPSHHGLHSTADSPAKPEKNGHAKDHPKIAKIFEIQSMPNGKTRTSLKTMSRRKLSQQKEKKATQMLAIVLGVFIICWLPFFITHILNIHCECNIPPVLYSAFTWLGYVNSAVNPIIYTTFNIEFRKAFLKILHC

As to `COc1cc(N)c(Cl)cc1C(=O)NC1CCN(Cc2ccccc2)CC1` [CLEBOPRIDE, N(1benzylpiperid-4-yl)-2-methoxy-4-amino-5-chlorobenzamide, reference compound], the “Stomach emptying index in the rat via oral route” value (“Stomach emptying index” below) with stomach emptying (setting [4]) and with stomach emptying (setting [5]) was 50.0 in each case. Moreover, the “Antidopaminergic activity: rat stereotype behaviour induced by apomorphine, ID50” value (from here on “Antidopaminergic activity … by apomorphine, ID50”) is listed as 0.3 mg/kg in data set [1] (Table 1, ip) and 0.3 mg/kg in data set [1] (setting [6]). Besides, the “Antidopaminergic activity: dog emesis screen, ID50” value in data set [2] (Table 1) and in data set [2] (setting [7]) was 9.6 µg/kg each time. Further, in data set [3] (in words, some patients), the “side effects associated with dopamine receptor blockade in some patients” value was “extrapyramidal symptoms and hyperprolactinemia related side effects in some patients”.

Turning to `CCCOc1cc(N)c(Cl)cc1C(=O)NC1CCN(CCCC2CCCO2)CC1` (centres unmarked) [COMPOUND 39], in the data set with stomach emptying (setting [4]), the “Stomach emptying index” value was 45.8. The “Antidopaminergic activity … by apomorphine, ID50” value in data set [1] (Table 1, ip) is listed as over 30.0 mg/kg. For the same molecule, the “Antidopaminergic activity: dog emesis screen, ID50” value in data set [2] (Table 1) is over 1000.0 µg/kg.

For the molecule `CCCCOc1cc(N)c(Cl)cc1C(=O)NC1CCN(CC2CCCCO2)CC1` (centres unmarked) [COMPOUND 57], the “Stomach emptying index” value in the data set with stomach emptying (setting [4]) was 51.0. Also, the “Antidopaminergic activity … by apomorphine, ID50” value in data set [1] (Table 1, ip) was over 30.0 mg/kg. Further, the “Antidopaminergic activity: dog emesis screen, ID50” value in data set [2] (Table 1) was over 1000.0 µg/kg.

Regarding `CCCCOc1cc(N)c(Cl)cc1C(=O)NC1CCN(CC2OCCO2)CC1` [COMPOUND 66, N-[1-[2-(1,3-dioxolanyl)methyl]piperid-4-yl]-2-butoxy-4-amino-5-chlorobenzamide], the “Stomach emptying index” value with stomach emptying (setting [4]) is 53.7. The “Antidopaminergic activity … by apomorphine, ID50” value in data set [1] (Table 1, ip) is given as over 30.0 mg/kg. The “Antidopaminergic activity: dog emesis screen, ID50” value in data set [2] (Table 1) was over 1000.0 µg/kg.

`CCCCOc1cc(N)c(Cl)cc1C(=O)NC1CCN(CC2OC(C)(C)C(C)(C)O2)CC1` [COMPOUND 91]: in the data set with stomach emptying (setting [4]), the “Stomach emptying index” value is on record as 54.9. The “Antidopaminergic activity … by apomorphine, ID50” value in data set [1] (Table 1, ip) is over 30.0 mg/kg. In addition, the “Antidopaminergic activity: dog emesis screen, ID50” value in data set [2] (Table 1) is over 1000.0 µg/kg.

With `CCCCOc1cc(N)c(Cl)cc1C(=O)NC1CCN(CC2OC3CCCCC3O2)CC1` (centres unmarked) [COMPOUND 95], the “Stomach emptying index” value with stomach emptying (setting [4]) was determined as 49.0. The “Antidopaminergic activity … by apomorphine, ID50” value in data set [1] (Table 1, ip) is given as over 30.0 mg/kg. Besides, in data set [2] (Table 1), the “Antidopaminergic activity: dog emesis screen, ID50” value is over 1000.0 µg/kg.

For `COc1cc(N)c(Cl)cc1C(=O)NC1CCN(CC2COCO2)CC1` (centres unmarked) [COMPOUND 98], in the data set on stomach emptying (setting [4]), the “Stomach emptying index” value is 60.1. For the same molecule, the “Antidopaminergic activity … by apomorphine, ID50” value in data set [1] (Table 1, ip) is over 30.0 mg/kg. The “Antidopaminergic activity: dog emesis screen, ID50” value in data set [2] (Table 1) was over 1000.0 µg/kg.

Turning to `CCCOc1cc(N)c(Cl)cc1C(=O)NC1CCN(CC2OCCCO2)CC1` [COMPOUND 108], the “Stomach emptying index” value in the data set on stomach emptying (setting [4]) is 51.0. The “Antidopaminergic activity … by apomorphine, ID50” value in data set [1] (Table 1, ip) is listed as over 30.0 mg/kg. Further, the “Antidopaminergic activity: dog emesis screen, ID50” value in data set [2] (Table 1) was over 1000.0 µg/kg.

Take `CCCCOc1cc(N)c(Cl)cc1C(=O)NC1CCN(CC2OCCCO2)CC1` [COMPOUND 109]: the “Stomach emptying index” value in the data set on stomach emptying (setting [4]) was determined as 61.3. Moreover, the “Antidopaminergic activity … by apomorphine, ID50” value in data set [1] (Table 1, ip) was over 30.0 mg/kg. Moreover, in data set [2] (Table 1), the “Antidopaminergic activity: dog emesis screen, ID50” value was over 1000.0 µg/kg.

Turning to `CCCCOc1cc(N)c(Cl)cc1C(=O)NC1CCN(CC2OCCCCO2)CC1` [COMPOUND 116], the “Stomach emptying index” value with stomach emptying (setting [4]) was found to be 56.2. Further, the “Antidopaminergic activity … by apomorphine, ID50” value in data set [1] (Table 1, ip) is given as over 30.0 mg/kg. The “Antidopaminergic activity: dog emesis screen, ID50” value in data set [2] (Table 1) is over 1000.0 µg/kg.

For `COc1cc(N)c(Cl)cc1C(=O)NC1CCN(Cc2cccs2)CC1` [COMPOUND A, reference compound], the “Stomach emptying index” value in the data set on stomach emptying (setting [5]) is 40.3. The “Antidopaminergic activity … by apomorphine, ID50” value in data set [1] (setting [6]) lay in the range of 3 to 10 mg/kg. For the same molecule, the “Antidopaminergic activity: dog emesis screen, ID50” value in data set [2] (setting [7]) fell in the range of 10 to 30 µg/kg.

With `COc1cc(N)c([N+](=O)[O-])cc1C(=O)NC1CCN(Cc2cccs2)CC1` [COMPOUND B, reference compound], the “Stomach emptying index” value in the data set with stomach emptying (setting [5]) is 17.7. For the same molecule, the “Antidopaminergic activity … by apomorphine, ID50” value in data set [1] (setting [6]) fell in the range of 10 to 30 mg/kg. Besides, the “Antidopaminergic activity: dog emesis screen, ID50” value in data set [2] (setting [7]) lay within 30 to 100 µg/kg.

`COc1cc(N)c(Cl)cc1C(=O)NC1CCN(Cc2ccccn2)CC1` [COMPOUND C, reference compound]: the “Stomach emptying index” value in the data set on stomach emptying (setting [5]) was 25.0. Moreover, the “Antidopaminergic activity … by apomorphine, ID50” value in data set [1] (setting [6]) is 10 to 30 mg/kg. The “Antidopaminergic activity: dog emesis screen, ID50” value in data set [2] (setting [7]) lay within 30 to 100 µg/kg.

For `COc1cc(N)c(Cl)cc1C(=O)NC1CCN(Cc2ccco2)CC1` [COMPOUND D, reference compound], the “Stomach emptying index” value with stomach emptying (setting [5]) is 19.3. Further, the “Antidopaminergic activity … by apomorphine, ID50” value in data set [1] (setting [6]) lay in the range of 3 to 10 mg/kg. The “Antidopaminergic activity: dog emesis screen, ID50” value in data set [2] (setting [7]) lay in the range of 10 to 30 µg/kg.

For the molecule `CCN(CC)CCNC(=O)c1cc(Cl)c(N)cc1OC` [METOCLOPRAMIDE, reference compound], the “Stomach emptying index” value with stomach emptying (setting [4]) and with stomach emptying (setting [5]) was 24.7 throughout. In addition, the “Antidopaminergic activity … by apomorphine, ID50” value in data set [1] (Table 1, ip) was determined as 5.4 mg/kg; in data set [1] (setting [6]), 5.4 mg/kg. In addition, the “Antidopaminergic activity: dog emesis screen, ID50” value in data set [2] (Table 1) and in data set [2] (setting [7]) was 76.7 µg/kg each time. For the same molecule, the “side effects associated with dopamine receptor blockade in some patients” value in data set [3] (human, in vivo) was “extrapyramidal symptoms and hyperprolactinemia related side effects in some patients”.
